The results in this text go back to publication PMC11345752, “In Situ Biofilm Affinity-Based Protein Profiling Identifies the Streptococcal Hydrolase GbpB as the Target of a Carolacton-Inspired Chemical Probe” (Journal of the American Chemical Society, 2024).

In the assay the target is T1, FolD (Escherichia coli, UniProt P24186).
T1 construct: purified E. coli FolD
Kind of assay: dehydrogenase assay with purified FolD. The assay is classed as biochemical.

Regarding `COC(CC(=O)O)C(C)C(=O)C(C)/C=C(\C)C1OC(=O)C(O)C(O)C=CC(C)CCCC1C` (stereo not shown) [carolacton], half-maximal inhibition (IC50) was put at 94 nM. This counts as double-digit nanomolar.
